Laboratory results taken from patent US8349883B2, “Hydroxamate-based inhibitors of deacetylases B” (Novartis AG, priority 2008, dated 2013).

How the values were obtained:
HDAC-1 = biological target: T1, HDAC-1 (Homo sapiens, UniProt Q13547); experiment: HDAC inhibition assay (purified GST-HDAC protein); type: biochemical
T1 construct: made in house; host or cells: Sf9 or Sf21 insect cells (baculovirus, donor vector pFB-GSTX3)

HCT116 = HCT116 IC50; type: cell-based; details: Homo sapiens, HCT-116

T1 sequence (Q13547 whole entry, species assumed): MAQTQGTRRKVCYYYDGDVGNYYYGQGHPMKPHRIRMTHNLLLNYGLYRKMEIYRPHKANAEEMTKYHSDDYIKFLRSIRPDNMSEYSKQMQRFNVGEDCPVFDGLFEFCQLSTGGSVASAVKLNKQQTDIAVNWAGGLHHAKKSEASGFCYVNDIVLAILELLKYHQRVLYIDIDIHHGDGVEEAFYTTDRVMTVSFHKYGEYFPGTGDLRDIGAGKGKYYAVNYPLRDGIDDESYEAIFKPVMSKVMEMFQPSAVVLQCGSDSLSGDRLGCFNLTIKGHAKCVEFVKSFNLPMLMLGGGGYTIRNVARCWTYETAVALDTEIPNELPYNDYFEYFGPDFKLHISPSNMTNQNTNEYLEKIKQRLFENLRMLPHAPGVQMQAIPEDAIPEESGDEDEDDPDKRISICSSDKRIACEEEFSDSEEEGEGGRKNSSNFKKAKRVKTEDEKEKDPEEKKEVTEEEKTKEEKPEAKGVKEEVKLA

| IC50 (HDAC-1) | IC50 (HCT116) | SMILES |
| --- | --- | --- |
| 1.4 nM | 1 nM | Cc1oc(-c2ccccc2)nc1CCN1CCC[C@H]1c1ccc(/C=C/C(=O)NO)cc1 [Compound 57, (E)-N-Hydroxy-3-(4-{(S)-1-[2-(5-methyl-2-phenyl-oxazol-4-yl)-ethyl]-pyrrolidin-2-yl}-phenyl)-acrylamide] |
| 30 nM | 96 nM | Cc1nn(CCN2CCC[C@H]2c2ccc(/C=C/C(=O)NO)cc2)cc1Br [Compound 70, (E)-3-(4-{(S)-1-[2-(4-Bromo-3-methyl-pyrazol-1-yl)-ethyl]-pyrrolidin-2-yl}-phenyl)-N-hydroxy-acrylamide] |
| 4 nM | 3 nM | O=C(/C=C/c1ccc([C@@H]2CCCN2CCc2cnn3ccccc23)c(Cl)c1)NO [Compound 92, (E)-3-{3-Chloro-4-[(S)-1-(2-pyrazolo[1,5-a]pyridin-3-yl-ethyl)-pyrrolidin-2-yl]-phenyl}-N-hydroxy-acrylamide] |
| 75 nM | 510 nM | CC(C)(O)c1nn2ccccc2c1CCN1CCC[C@@H]1c1ccc(CCC(=O)NO)cc1 [Compound 120, N-Hydroxy-3-[4-((R)-1-{2-[2-(1-hydroxy-1-methyl-ethyl)-pyrazolo[1,5-a]pyridin-3-yl]-ethyl}-pyrrolidin-2-yl)-phenyl]-propionamide] |
| 7 nM | 29 nM | O=C(/C=C/c1ccc(C2CCCN2CCc2ccc(Cl)cc2Cl)cc1)NO (centres unmarked) [Compound 26, (E)-3-(4-{1-[2-(2,4-Dichloro-phenyl)-ethyl]-pyrrolidin-2-yl}-phenyl)-N-hydroxy-acrylamide] |
| 4 nM | 9 nM | O=C(/C=C/c1ccc([C@@H]2CCCCN2CCc2cnn3ccccc23)cc1)NO [Compound 85, (E)-N-Hydroxy-3-{4-[(S)-1-(2-pyrazolo[1,5-a]pyridin-3-yl-ethyl)-piperidin-2-yl]-phenyl}-acrylamide] |
| 31 nM | 210 nM | O=C(/C=C/c1ccc([C@@H]2CCCN2CCc2cn(CCOCc3ccccc3)nn2)cc1)NO [Compound 76, (E)-3-[4-((S)-1-{2-[1-(2-Benzyloxy-ethyl)-1H-[1,2,3]triazol-4-yl]-ethyl}-pyrrolidin-2-yl)-phenyl]N-hydroxy-acrylamide] |
| 20 nM | 49 nM | Cc1c(CCN2CCC[C@H]2c2ccc(/C=C/C(=O)NO)cc2)c(=O)n(-c2ccccc2)n1C [Compound 116, (E)-3-(4-{(S)-1-[2-(1,5-Dimethyl-3-oxo-2-phenyl-2,3-dihydro-1H-pyrazol-4-yl)-ethyl]-pyrrolidin-2-yl}-phenyl)-N-hydroxy-acrylamide] |
| 42 nM | 360 nM | CC(C)(C)n1nnc(CCN2CCC[C@H]2c2ccc(/C=C/C(=O)NO)cc2)n1 [Compound 104, (E)-3-(4-{(S)-1-[2-(2-tert-Butyl-2H-tetrazol-5-yl)-ethyl]-pyrrolidin-2-yl}-phenyl)-N-hydroxy-acrylamide] |
| 7 nM | 36 nM | O=C(/C=C/c1ccc([C@@H]2CCCN2CCc2cn[nH]c2)cc1)NO [Compound 58, (E)-N-Hydroxy-3-(4-{(S)-1-[2-(1H-pyrazol-4-yl)-ethyl]-pyrrolidin-2-yl}-phenyl)-acrylamide] |
| 2 nM | 1.1 nM | Cc1nn(-c2ccccc2)c(C)c1CCN1CCC[C@H]1c1ccc(/C=C/C(=O)NO)cc1 [Compound 55, (E)-3-(4-{(S)-1-[2-(3,5-Dimethyl-1-phenyl-1H-pyrazol-4-yl)-ethyl]-pyrrolidin-2-yl}-phenyl)-N-hydroxy-acrylamide] |
| 3 nM | 4 nM | Cc1nc2ccccn2c1CCN1CCC[C@H]1c1ccc(/C=C/C(=O)NO)cc1 [Compound 54, (E)-N-Hydroxy-3-(4-{(S)-1-[2-(2-methyl-imidazo[1,2-a]pyridin-3-yl)-ethyl]-pyrrolidin-2-yl}-phenyl)-acrylamide] |

| SMILES | IC50 (HDAC-1) | IC50 (HCT116) |
| --- | --- | --- |
| Cc1[nH]c2ccccc2c1CCN1CCNCC1c1ccc(/C=C/C(=O)NO)cc1 (centres unmarked) [Compound 89, (E)-N-Hydroxy-3-(4-{1-[2-(2-methyl-1H-indol-3-yl)-ethyl]-piperazin-2-yl}-phenyl)-acrylamide] | 7 nM | 200 nM |
